Experimental data: patent publication US20100056565A1, “Heterocyclic Derivatives as M3 Muscarinic Receptors” (priority 2007, published 2010)
Counter-ions that a name gives are not always drawn.

These compounds were tested against T1, Recombinant human M3 receptor (Homo sapiens, UniProt P20309) (assay: biochemical). Details: SPA format; read-out: M3 Ki (SPA format).
T1 construct: expressed in transfected cells; host or cells: CHO-K1 cells (membranes)
Format: binding
Experimental: Recombinant human M3 receptor was expressed in CHO-K1 cells. Cell membranes were prepared and binding of [3H]-N-methyl scopolamine ([3H]-NMS) and compounds was assessed by a scintillation proximity assay (SPA). The incubation time was 16 hours at room temperature in the presence of 1% (v/v) DMSO. The assay was performed in white 96 well clear-bottomed NBS plates (Corning). Prior to the assay, the CHO cell membranes containing M3 receptor were coated onto SPA WGA (Wheat germ agglutinin) beads (GE Healthcare). Non specific binding was determined in the presence of 1 μM Atropine.
Radioactivity was measured on a Microbeta scintillation counter (PerkinElmer) using a 3H protocol with a 2 minutes per well read time. […] Concentration dependent inhibition of [3H]-NMS binding by compounds was expressed as pIC50.

T1 sequence (P20309 whole entry): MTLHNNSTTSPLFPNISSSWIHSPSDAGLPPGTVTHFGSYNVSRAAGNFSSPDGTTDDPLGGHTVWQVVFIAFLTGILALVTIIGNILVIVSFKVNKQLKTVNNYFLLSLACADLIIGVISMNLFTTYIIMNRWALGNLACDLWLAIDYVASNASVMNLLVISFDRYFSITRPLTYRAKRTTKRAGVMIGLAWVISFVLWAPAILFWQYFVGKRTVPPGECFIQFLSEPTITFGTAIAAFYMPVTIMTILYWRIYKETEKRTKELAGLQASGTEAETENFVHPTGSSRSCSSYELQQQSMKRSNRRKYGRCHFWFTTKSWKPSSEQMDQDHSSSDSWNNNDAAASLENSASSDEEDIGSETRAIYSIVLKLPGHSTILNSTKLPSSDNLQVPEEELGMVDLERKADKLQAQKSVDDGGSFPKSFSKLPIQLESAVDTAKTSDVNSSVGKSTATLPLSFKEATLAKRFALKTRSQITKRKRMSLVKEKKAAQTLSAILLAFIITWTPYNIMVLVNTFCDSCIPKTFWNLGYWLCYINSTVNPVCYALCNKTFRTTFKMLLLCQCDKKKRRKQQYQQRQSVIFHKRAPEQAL

| SMILES | Ki [nM] |
| --- | --- |
| OC(c1ccccc1)(c1noc(C[N+]23CCC(CC2)[C@@H](OCc2ccccc2)C3)n1)C1CCCCC1 (single isomer, unassigned) [Example 30, formate] | < 5 |
| OC(c1ccccc1)(c1cc(C[N+]23CCC(CC2)[C@@H](OCc2ccccc2)C3)on1)C1CCCCC1 (single isomer, unassigned) [Example 31, formate] | < 5 |
| OC(c1ccccc1)(c1ncc(C[N+]23CCC(CC2)[C@@H](OCc2ccccc2)C3)o1)C1CCCCCCC1 (single isomer, unassigned) [Example 48, formate] | < 5 |
| OC(c1ccccc1)(c1ncc(C[N+]23CCC(CC2)[C@@H](OCc2ccccc2)C3)o1)C1CCC1 (single isomer, unassigned) [Example 50, formate] | < 5 |
| OC(c1ccccc1)(c1cc(C[N+]23CCC(CC2)[C@@H](OCc2ccc(F)cc2)C3)on1)C1CCCCC1 (single isomer, unassigned) [Example 54] | < 5 |
| O[C@](c1ccccc1)(c1ncc(C[N+]23CCC(CC2)C(COc2cccc(F)c2)C3)o1)C1CCCCC1 (single isomer, unassigned) [Example 81] | < 5 |
| O[C@](c1ccccc1)(c1ncc(C[N+]23CCC(CC2)C(COc2ccc(F)cc2)C3)o1)C1CCCCC1 (single isomer, unassigned) [Example 82] | < 5 |
| OC(c1ccccc1)(c1ccccc1)c1ncc(C[N+]23CCC(CC2)C(COc2cccc(F)c2)C3)o1 (single isomer, unassigned) [Example 83, 3-(3-Fluoro-phenoxymethyl)-1-[2-(hydroxy-diphenyl-methyl)-oxazol-5-ylmethyl]-1-azonia-bicyclo[2.2.2]octane; bromide] | 5 to 20 |
| OC(c1ccccc1)(c1ccccc1)c1ncc(C[N+]23CCC(CC2)C(COc2cccc(F)c2)C3)o1 (single isomer, unassigned) [Example 84, 3-(3-Fluoro-phenoxymethyl)-1-[2-(hydroxy-diphenyl-methyl)-oxazol-5-ylmethyl]-1-azonia-bicyclo[2.2.2]octane; bromide] | < 5 |
| O[C@](c1ccccc1)(c1ncc(C[N+]23CCC(CC2)C(COc2cccc(F)c2)C3)o1)C1CCCCC1 (single isomer, unassigned) [Example 85] | < 5 |
| OC(c1ccccc1)(c1ccccc1)c1ncc(C[N+]23CCC(CC2)C(COc2ccc(F)cc2)C3)o1 (single isomer, unassigned) [Example 86, 3-(4-Fluoro-phenoxymethyl)-1-[2-(hydroxy-diphenyl-methyl)-oxazol-5-ylmethyl]-1-azonia-bicyclo[2.2.2]octane; bromide] | 5 to 20 |
| O[C@](c1ccccc1)(c1ncc(C[N+]23CCC(CC2)C(COc2ccc(F)cc2)C3)o1)C1CCCCC1 (single isomer, unassigned) [Example 87] | < 5 |
| C=CCOCC1C[N+]2(Cc3cnc([C@](O)(c4ccccc4)C4CCCCC4)o3)CCC1CC2 (single isomer, unassigned) [Example 89, formate] | < 5 |
| C=CCOCC1C[N+]2(Cc3cnc([C@](O)(c4ccccc4)C4CCCCC4)o3)CCC1CC2 (single isomer, unassigned) [Example 90, formate] | 5 to 20 |
| OC(c1ccccc1)(c1cc(C[N+]23CCC(CC2)C(COc2ccccc2)C3)on1)C1CCCCC1 (single isomer, unassigned) [Example 91] | < 5 |
| OC(c1ccccc1)(c1cc(C[N+]23CCC(CC2)[C@@H](Oc2cccc(F)c2)C3)on1)C1CCCCC1 (single isomer, unassigned) [Example 101] | < 5 |
| OC(c1ccccc1)(c1ncc(C[N+]23CCC(CC2)C(CSc2ccccc2)C3)o1)C1CCC1 (single isomer, unassigned) [Example 122] | < 5 |

| SMILES | Ki [nM] |
| --- | --- |
| OC(c1ccccc1)(c1cc(C[N+]23CCC(CC2)C(CSc2ccccc2)C3)on1)C1CCCCC1 (single isomer, unassigned) [Example 123] | < 5 |
| OC(c1ccccc1)(c1cc(C[N+]23CCC(CC2)[C@@H](CSc2ccccc2)C3)on1)C1CCCCC1 (single isomer, unassigned) [Example 124] | < 5 |
| OC(c1ccccc1)(c1cc(C[N+]23CCC(CC2)C(CSc2ccc(F)cc2)C3)on1)C1CCCCC1 (single isomer, unassigned) [Example 125] | 5 to 20 |
| OC(c1ccccc1)(c1cc(C[N+]23CCC(CC2)[C@@H](SCc2ccccc2)C3)on1)C1CCCCC1 (single isomer, unassigned) [Example 126] | < 5 |
| OC(c1ccccc1)(c1noc(C[N+]23CCC(CC2)[C@@H](SCc2ccccc2)C3)n1)C1CCCCC1 (single isomer, unassigned) [Example 127] | < 5 |
| OC(c1ccccc1)(c1noc(C[N+]23CCC(CC2)[C@@H](Oc2cccc(F)c2)C3)n1)C1CCCCC1 (single isomer, unassigned) [Example 128] | < 5 |
| Cc1ccc(O[C@H]2C[N+]3(Cc4nc(C(O)(c5ccccc5)C5CCCCC5)no4)CCC2CC3)cc1Cl (single isomer, unassigned) [Example 129] | < 5 |
| OC(c1ccccc1)(c1noc(C[N+]23CCC(CC2)[C@@H](OCc2ccc(F)cc2)C3)n1)C1CCCCC1 (single isomer, unassigned) [Example 130] | < 5 |
| OC(c1ccccc1)(c1noc(C[N+]23CCC(CC2)[C@@H](Sc2ccccc2)C3)n1)C1CCCCC1 (single isomer, unassigned) [Example 131] | < 5 |
| OC(c1ccccc1)(c1noc(C[N+]23CCC(CC2)[C@@H](CSc2ccccc2)C3)n1)C1CCCCC1 (single isomer, unassigned) [Example 132] | < 5 |
| OC(c1ccccc1)(c1noc(C[N+]23CCC(CC2)C(CSc2cccc(F)c2)C3)n1)C1CCCCC1 (single isomer, unassigned) [Example 133] | < 5 |
| OC(c1ccccc1)(c1cc(C[N+]23CCC(CC2)[C@@H](Oc2ccc(F)cc2)C3)on1)C1CCCCC1 (single isomer, unassigned) [Example 143] | < 5 |
| OC(c1ccccc1)(c1noc(C[N+]23CCC(CC2)[C@H](COc2ccccc2)C3)n1)C1CCCCC1 (single isomer, unassigned) [Example 144] | < 5 |
| O[C@@](c1ccccc1)(c1ncc(C[N+]23CCC(CC2)CC3)o1)C1CCCCC1 [Example 5, 1-[2-((S))-Cyclohexyl-hydroxy-phenyl-methyl)-oxazol-5-ylmethyl]-1-azonia-bicyclo[2.2.2]octane bromide] | < 5 |
| O[C@@](c1ccccc1)(c1ncc(C[N+]23CCC(CC2)[C@H](Oc2ccccc2)C3)o1)C1CCCCC1 [Example 6, (S)-1-[2-((S)—Cyclohexyl-hydroxy-phenyl-methyl)-oxazol-5-ylmethyl]-3-phenoxy-1-azonia-bicyclo[2.2.2]octane bromide] | > 20 |
| O[C@@](c1ccccc1)(c1ncc(C[N+]23CCC(CC2)[C@@H](Oc2ccccc2)C3)o1)C1CCCCC1 [Example 7, (R)-1-[2-((S)—Cyclohexyl-hydroxy-phenyl-methyl)-oxazol-5-ylmethyl]-3-phenoxy-1-azonia-bicyclo[2.2.2]octane bromide] | 5 to 20 |
| O[C@](c1ccccc1)(c1ncc(C[N+]23CCC(CC2)[C@H](Oc2ccccc2)C3)o1)C1CCCCC1 [Example 8, (S)-1-[2-((R)—Cyclohexyl-hydroxy-phenyl-methyl)-oxazol-5-ylmethyl]-3-phenoxy-1-azonia-bicyclo[2.2.2]octane; bromide] | 5 to 20 |
